Blank lines part the entries; values can stand above or below the compound they belong to. The source made the active and inactive calls. The rule behind the calls is not given here.
Columns and labels:
Quadruplex DNA [1] = assay: Binding affinity at Tel45 G4 quadruplex DNA (unknown origin) assessed as change in melting temperature at 6 uM by circular dichroism spectrophotometric method; type: nucleic-acid assay
Quadruplex DNA [2] = assay: Binding affinity at Tel21 G4 quadruplex DNA (unknown origin) assessed as change in melting temperature at 6 uM by circular dichroism spectrophotometric method; type: nucleic acid
U2OS [3] = assay: Cytotoxicity against human U2OS cells assessed as reduction in cell viability measured after 24 hrs by CCK8 assay
U2OS [4] = assay: Cell cycle arrest in human U2OS cells assessed as increase in accumulation at S phase measured after 24 hrs by propidium iodide staining based flow cytometry; type: functional
U2OS [5] = assay: Cell cycle arrest in human U2OS cells assessed as accumulation at G2/M phase at 2.5 uM measured after 24 hrs by propidium iodide staining based flow cytometry (reference value: 33.5%); type: functional
Quadruplex DNA [6] = assay: Binding affinity at Tel45-6 mutant G4 quadruplex DNA (unknown origin) assessed as change in melting temperature at 6 uM by circular dichroism spectrophotometric method; type: nucleic-acid assay
U2OS [7] = assay: Induction of apoptosis in human U2OS cells assessed as viable cells at 2.5 uM measured after 24 hrs by Annexin-V flour 633/propidium iodide staining based flow cytometry (reference value: 90%); type: functional; details: read-out: Activity
U2OS [8] = assay: Antimigratory activity in human U2OS cells measured after 24 hrs by wound scrape assay; type: functional, cell-based; details: dose 1.5-5 µM
U2OS [9] = assay: Induction of apoptosis in human U2OS cells assessed as viable cells at 0.6 uM measured after 24 hrs by Annexin-V flour 633/propidium iodide staining based flow cytometry (reference value: 90%); type: functional; details: read-out: Activity
U2OS [10] = assay: Cell cycle arrest in human U2OS cells assessed as accumulation at Sub-G1 phase at 0.6 uM measured after 24 hrs by propidium iodide staining based flow cytometry (reference value: 0.5%); type: functional
Quadruplex DNA [11] = assay: Binding affinity at Tel45 G4 quadruplex DNA (unknown origin) by fluorescence spectroscopic analysis; type: nucleic-acid assay
U2OS [12] = assay: Induction of apoptosis in human U2OS cells assessed as early apoptotic cells at 2.5 uM measured after 24 hrs by Annexin-V flour 633/propidium iodide staining based flow cytometry (reference value: 9.55%); type: functional
Quadruplex DNA [13] = assay: Binding affinity to 2-Ap1 labelled Tel45 G4 quadruplex DNA (unknown origin) up to 10 uM by fluorescence titration assay; type: nucleic-acid assay; details: dose microM <=10
U2OS [14] = assay: Cell cycle arrest in human U2OS cells assessed as accumulation at Sub-G1 phase at 2.5 uM measured after 24 hrs by propidium iodide staining based flow cytometry (reference value: 0.5%); type: functional
Quadruplex DNA [15] = assay: Binding affinity at Tel45-6 mutant G4 quadruplex DNA (unknown origin) by fluorescence spectroscopic analysis; type: nucleic-acid assay
U2OS [16] = assay: Induction of apoptosis in human U2OS cells assessed as necrotic cells at 1.2 uM measured after 24 hrs by Annexin-V flour 633/propidium iodide staining based flow cytometry (reference value: 0.022%); type: functional
U2OS [17] = assay: Induction of apoptosis in human U2OS cells assessed as late apoptotic cells at 1.2 uM measured after 24 hrs by Annexin-V flour 633/propidium iodide staining based flow cytometry (reference value: 0.03%); type: functional
U2OS [18] = assay: Cell cycle arrest in human U2OS cells assessed as accumulation at G2/M phase at 1.2 uM measured after 24 hrs by propidium iodide staining based flow cytometry (reference value: 33.5%); type: functional
U2OS [19] = assay: Cell cycle arrest in human U2OS cells assessed as accumulation at G0/G1 phase at 2.5 uM measured after 24 hrs by propidium iodide staining based flow cytometry (reference value: 42%); type: functional
U2OS [20] = assay: Cell cycle arrest in human U2OS cells assessed as accumulation at S phase at 1.2 uM measured after 24 hrs by propidium iodide staining based flow cytometry (reference value: 24%); type: functional
Quadruplex DNA [21] = assay: Binding affinity at Tel45-9 mutant G4 quadruplex DNA (unknown origin) assessed as change in melting temperature at 6 uM by circular dichroism spectrophotometric method; type: nucleic-acid assay
U2OS [22] = assay: Inhibition of colony formation in human U2OS cells supplemented with fresh medium containing compounds every 3 days for 7 days by crystal violet staining based assay; type: functional, cell-based; details: dose 0.12-0.5 µM, time 7.0 day
BJ = assay: Cytotoxicity against human BJ cells assessed as reduction in cell viability measured after 24 hrs by CCK8 assay; type: cell-based
U2OS [23] = assay: Induction of apoptosis in human U2OS cells assessed as late apoptotic cells at 0.6 uM measured after 24 hrs by Annexin-V flour 633/propidium iodide staining based flow cytometry (reference value: 0.03%); type: functional
[24] = Binding affinity to hairpin duplex DNA (unknown origin) by fluorescence spectroscopic analysis
Quadruplex DNA [25] = assay: Binding affinity to 2-Ap25 labelled Tel45 G4 quadruplex DNA (unknown origin) up to 10 uM by fluorescence titration assay; type: nucleic-acid assay; details: dose microM <=10
U2OS [26] = assay: Induction of apoptosis in human U2OS cells assessed as necrotic cells at 2.5 uM measured after 24 hrs by Annexin-V flour 633/propidium iodide staining based flow cytometry (reference value: 0.022%); type: functional
U2OS [27] = assay: Cell cycle arrest in human U2OS cells assessed as accumulation at G0/G1 phase at 0.6 uM measured after 24 hrs by propidium iodide staining based flow cytometry (reference value: 42%); type: functional
Quadruplex DNA [28] = assay: Binding affinity at Tel21 G4 quadruplex DNA (unknown origin) by fluorescence spectroscopic analysis; type: nucleic-acid assay
U2OS [29] = assay: Cell cycle arrest in human U2OS cells assessed as accumulation at G2/M phase at 0.6 uM measured after 24 hrs by propidium iodide staining based flow cytometry (reference value: 33.5%); type: functional
Quadruplex DNA [30] = assay: Binding affinity at Tel21 G4 quadruplex DNA (unknown origin) by time resolved fluorescence analysis; type: nucleic-acid assay
Quadruplex DNA [31] = assay: Binding affinity at Tel45 G4 quadruplex DNA (unknown origin) assessed as appearance of new long-lived unquenched species by time resolved fluorescence assay; type: nucleic-acid assay
U2OS [32] = assay: Cell cycle arrest in human U2OS cells assessed as accumulation at G0/G1 phase at 1.2 uM measured after 24 hrs by propidium iodide staining based flow cytometry (reference value: 42%); type: functional
U2OS [33] = assay: Induction of apoptosis in human U2OS cells assessed as early apoptotic cells at 0.6 uM measured after 24 hrs by Annexin-V flour 633/propidium iodide staining based flow cytometry (reference value: 9.55%); type: functional
U2OS [34] = assay: Induction of apoptosis in human U2OS cells assessed as viable cells at 1.2 uM measured after 24 hrs by Annexin-V flour 633/propidium iodide staining based flow cytometry (reference value: 90%); type: functional; details: read-out: Activity
U2OS [35] = assay: Induction of apoptosis in human U2OS cells assessed as late apoptotic cells at 2.5 uM measured after 24 hrs by Annexin-V flour 633/propidium iodide staining based flow cytometry (reference value: 0.03%); type: functional
Quadruplex DNA [36] = assay: Binding affinity at Tel45-9 mutant G4 quadruplex DNA (unknown origin) by fluorescence spectroscopic analysis; type: nucleic-acid assay
Quadruplex DNA [37] = assay: Binding affinity to 2-Ap46 labelled Tel45 G4 quadruplex DNA (unknown origin) up to 10 uM by fluorescence titration assay; type: nucleic-acid assay; details: dose microM <=10
U2OS [38] = assay: Cell cycle arrest in human U2OS cells assessed as accumulation at S phase at 0.6 uM measured after 24 hrs by propidium iodide staining based flow cytometry (reference value: 24%); type: functional
[39] = Binding affinity to hairpin duplex DNA (unknown origin) by time resolved fluorescence analysis
Quadruplex DNA [40] = assay: Binding affinity to Tel45 G4 quadruplex DNA (unknown origin) assessed as compound-DNA complex formation at stoichiometry ratio of 1:1 by job-plot analysis; type: nucleic-acid assay
U2OS [41] = assay: Cell cycle arrest in human U2OS cells assessed as accumulation at S phase at 2.5 uM measured after 24 hrs by propidium iodide staining based flow cytometry (reference value: 24%); type: functional
U2OS [42] = assay: Induction of apoptosis in human U2OS cells assessed as early apoptotic cells at 1.2 uM measured after 24 hrs by Annexin-V flour 633/propidium iodide staining based flow cytometry (reference value: 9.55%); type: functional
U2OS [43] = assay: Induction of apoptosis in human U2OS cells assessed as necrotic cells at 0.6 uM measured after 24 hrs by Annexin-V flour 633/propidium iodide staining based flow cytometry (reference value: 0.022%); type: functional
U2OS [44] = assay: Cell cycle arrest in human U2OS cells assessed as accumulation at Sub-G1 phase at 1.2 uM measured after 24 hrs by propidium iodide staining based flow cytometry (reference value: 0.5%); type: functional

ΔTm (Quadruplex DNA [1]): 6.9 °C
deltaTm (Quadruplex DNA [2]): 8.9 °C
SMILES: CN1CCN(c2ccc(-c3nc(-c4ccc(-c5nc(-c6ccc(N7CCN(C)CC7)cc6)c(-c6ccc(N7CCN(C)CC7)cc6)[nH]5)cc4)[nH]c3-c3ccc(N4CCN(C)CC4)cc3)cc2)CC1

ΔTm (Quadruplex DNA [1]): 15.7 °C
deltaTm (Quadruplex DNA [2]): 6.5 °C
SMILES: CN1CCN(c2ccc(-c3nc(-c4ccc(-c5nc(-c6ccc(F)cc6)c(-c6ccc(N7CCN(C)CC7)cc6)[nH]5)cc4)[nH]c3-c3ccc(N4CCN(C)CC4)cc3)cc2)CC1

ΔTm (Quadruplex DNA [1]): 10.9 °C
deltaTm (Quadruplex DNA [2]): 6.1 °C
SMILES: CN1CCN(c2ccc(-c3nc(-c4ccc(-c5nc(-c6ccc(F)cc6)c(-c6ccc(F)cc6)[nH]5)cc4)[nH]c3-c3ccc(N4CCN(C)CC4)cc3)cc2)CC1

Second part, the compound before the results:

SMILES: CN(C)c1ccc(Nc2c3ccc(NC(=O)CCN4CCCC4)cc3nc3cc(NC(=O)CCN4CCCC4)ccc23)cc1
IC50 (U2OS [3]): > 40 µM

SMILES: CN1CCN(c2ccc(-c3nc(-c4ccc(-c5nc(-c6ccc(F)cc6)c(-c6ccc(N7CCN(C)CC7)cc6)[nH]5)cc4)[nH]c3-c3ccc(F)cc3)cc2)CC1
Activity (U2OS [4]): Dose-dependent effect
Activity (U2OS [5]): 27.9%
deltaTm (Quadruplex DNA [6]): 2.5 °C
viability at 2.5 µM (U2OS [7]): 73.7%
Activity (U2OS [8]): Dose-dependent effect
viability at 0.6 µM (U2OS [9]): 84.3%
Activity (U2OS [10]): 0.3%
Kd (Quadruplex DNA [11]): 4.6 µM
Activity (U2OS [12]): 20%
Activity (Quadruplex DNA [13]): inactive
ΔTm (Quadruplex DNA [1]): 12.7 °C
Activity (U2OS [14]): 3.4%
Kd (Quadruplex DNA [15]): 8.6 µM
Activity (U2OS [16]): 0.53%
Activity (U2OS [17]): 4.78%
Activity (U2OS [18]): 34.4%
Activity (U2OS [19]): 36.5%
Activity (U2OS [20]): 25.9%
deltaTm (Quadruplex DNA [21]): 4.3 °C
inhibition (U2OS [22]): Dose-dependent effect
IC50 (BJ): 29.3 µM
Activity (U2OS [23]): 3.05%
Kd [24]: 51.7 µM
Activity (Quadruplex DNA [25]): Active
Activity (U2OS [26]): 1.34%
Activity (U2OS [27]): 41.4%
Kd (Quadruplex DNA [28]): 18.4 µM
Activity (U2OS [29]): 33.4%
Activity (Quadruplex DNA [30]): Not Active
Activity (Quadruplex DNA [31]): Active
Activity (U2OS [32]): 39.3%
Activity (U2OS [33]): 12.5%
viability at 1.2 µM (U2OS [34]): 76.8%
Activity (U2OS [35]): 4.92%
Kd (Quadruplex DNA [36]): 10.7 µM
Activity (Quadruplex DNA [37]): inactive
Activity (U2OS [38]): 25%
Activity [39]: Not Active
Activity (Quadruplex DNA [40]): Active
deltaTm (Quadruplex DNA [2]): 1.7 °C
IC50 (U2OS [3]): 2.1 µM
Activity (U2OS [41]): 32.2%
Activity (U2OS [42]): 17.9%
Activity (U2OS [43]): 0.14%
Activity (U2OS [44]): 0.4%

Source: ChEMBL document CHEMBL4715837, “Dimeric aryl-substituted imidazoles may inhibit ALT cancer by targeting the multimeric G-quadruplex in telomere” (Eur J Med Chem, 2020)
